Measurements from US7169815B2, “3-methoxybenzyl thiourea derivatives and improved lipid compositions containing same” (The United States of America as represented by the …, priority 2000, dated 2007).
In brackets after ≈: the same amount, converted by molar mass. Where two headings read alike, the source gives them in different places.

Key:
[1] = UVB and UVA molar absorptivities in chloroform; format: physicochemical; conditions: 0.01 mg/ml in chloroform
Protocol: The compounds synthesized in Example 3 were tested to determine their ability to absorb […] UVA light. UV spectra of quantitatively weighed and diluted samples (0.01 mg/ml) in chloroform were scanned from 244–450 nm at 240 nm/min on a Beckman DU 640 spectrophotometer (Beckman Coulter, Inc., Fullerton, Calif.). Amax in the 280–320 nm range was determined and converted to molar absorptivity for the UVB region, and Amax in the 320–400 nm range was determined and converted to molar absorptivity for the UVA region.

[2] = OSI test of high oleic sunflower oil mixed with additive; conditions: 1.0% additive, 130° C.
Text: (§1) A presently preferred method of determining oxidative stability of lipids and oils employs the Oxidative Stability Index (OSI), which determines the oxidative stability of an oil by passing air through a sample under stringent temperature control. (Firestone, Oxidative Stability Index (OSI): Official Methods of Recommended Practices of the American Oil Chemists' Society (AOCS), 4th Ed. American Oil Chemists Society, Champaign, Ill., AOCS Official Method Cd 12b-92, 1993.) In this method, a stream of air is passed through the oil sample, which aids in the rapid degradation of the triglyceride into volatile organic acids. The air stream flushes the volatile acids from the oil into a conductivity cell containing water where the acids are solubilized. These acids, once dissolved in the water solution, disassociate into ions, thus changing the conductivity of the water. Therefore, a continuous measure of the conductivity of the cell by computer will indicate when a rapid rise in the conductivity occurs that corresponds to the induction point, oxidative failure of the sample. […]
(§2) Unless otherwise stated, Oxidative Stability Index (OSI) values were determined on 5.00 ±0.05 g lipid or oil samples in triplicate according to AOCS Official Method Cd 12b-92 (AOCS, 1993) at 90° C., 110° C. and/or 130° C. on an oxidative stability instrument manufactured by Omnion (Rockland, Mass.). […]

[3] = OSI test of soybean oil mixed with additive; conditions: 1.0% additive, 130° C.
Text: as §1, §2

[4] = Solubility in refined meadowfoam seed oil (HPLC); format: physicochemical; conditions: oil or lipid, thermodynamic from solid, cooled to room temperature overnight
Protocol: Typical retention times were 7–9 min for the thioureas. Samples were weighed accurately (about 0.1 g) into 1.00 g of refined meadowfoam seed oil and heated to temperature (either 30° C. or 50° C.) for 4 h with occasional shaking. The samples were cooled to room temperature overnight, centrifuged and 0.3 g of the supernatant oil was removed and diluted with 1 ml CHCl3 for testing.

[5] = Oxidative Stability by Rotating Pressure Vessel (RBOT) of refined meadowfoam seed oil plus thiourea compounds
Text: Another presently preferred method of determining oxidative stability of lipids and oils employs the Oxidative Stability by Rotating Pressure Vessel (RBOT) test. In this test, oxidative stability, determined according to the ASTM D2272-98 test method (ASTM, 2001, “Standard Test Method for Oxidation Stability of Steam Turbine Oils by Rotating Pressure Vessel,” in Book of Standards, Vol. 05.01., American Society for Testing and Materials, West Conshohocken, Pa.), measures the time for oxygen pressure to decrease in a closed stainless steel vessel containing a lipid or oil when heated with a copper coil catalyst. Oxygen taken up by the lipid or oil during the reaction is an indication of oil degradation.
In these experiments, Oxidative Stability by Rotating Pressure Vessel (RBOT) tests were performed with different 3-methoxybenzyl thiourea compounds synthesized in Example 3 that were mixed in different quantities with different mono- and polyunsaturated vegetable oils. Hexane was used to clean and store the copper coils, but all other aspects of the Oxidative Stability by Rotating Pressure Vessel (RBOT) test were the same as in the standard ASTM D2272–98 test method (ASTM, 2001, “Standard Test Method for Oxidation Stability of Steam Turbine Oils by Rotating Pressure Vessel,” in Book of Standards, Vol. 05.01., American Society for Testing and Materials, West Conshohocken, Pa.).

in vivo = conditions: Artemia salina (brine shrimp), in vivo, other: exposure in seawater in microplate wells
Protocol: (§3) Brine shrimp eggs (Artemia salina) were obtained from Brine Shrimp Direct, Ogden, Utah and stored at 10° C. until used. Eggs (400 mg) were added to 1 l of deionized water containing 40 g of sea salts (Sigma Chemical Co., St. Louis, Mo.).
(§4) Serial dilutions were performed in 100 μl of seawater in triplicate in the wells of a 96-well microplate to give appropriate concentrations. Control wells for both water and DMSO were included with each experiment. […] The number of non-motile, and the total number of, naupli were counted in each well using a binocular microscope (10×).

[6] = test system: Brine Shrimp (Artemia Salina); test: in vivo; conditions: as Table 7 shows
Protocol: as §3, §4

UVBMAX Molar Absorptivity ([1]; Amax in 280–320 nm): 5367
UVAMAX Molar Absorptivity ([1]; Amax in 320–400 nm): 0.0
solubility at 4 h ([4]; heated to 30° C. for 4 h, read-out: Solubility at 30° C.): 2480 µg/mL (≈ 7.84 mM)
solubility at 4 h ([4]; heated to 50° C. for 4 h, read-out: Solubility at 50° C.): 3520 µg/mL (≈ 11.1 mM)
Oxidative Stability (RBOT) ([5]; Refined Meadowfoam Seed Oil plus 0.05% compound): 33 min
Oxidative Stability (RBOT) ([5]; Refined Meadowfoam Seed Oil plus 0.1% compound): 40 min
Oxidative Stability (RBOT) ([5]; Refined Meadowfoam Seed Oil plus 0.2% compound): 41 min
Oxidative Stability (RBOT) ([5]; Refined Meadowfoam Seed Oil plus 1.0% compound): 41 min
Oxidative stability in the RBOT test, in words ([5]; addition of 0.1% compound): doubled
SMILES: COc1cccc(CNC(=S)NCc2cccc(OC)c2)c1 [1,3-di(3-methoxybenzyl) thiourea]
OSI Time [2]: 157 h
improvement of OSI time compared to sunflower oil alone [2]: 1720%
OSI Time [3]: 6.4 h
improvement of OSI time compared to soybean oil alone [3]: 831%
LC50 at 24 h (in vivo): > 1000 µg/mL
toxicity against brine shrimp, in words [6]: very low
